# Measured values as given in article PMC12216609, “Inhibitors of eIF1A-ribosome interaction unveil uORF-dependent regulation of translation initiation and antitumor and antiviral effects” (The EMBO Journal, 2025).
# Where “and” joins values, the source holds several entries; their conditions need not be identical. Equal entries are not always repeated. Where two headings read alike, the source gives them in different places.
# How the values were obtained:
# NSP1 = NSP1 (Severe acute respiratory syndrome coronavirus 2, UniProt P0DTD1)
# [1] = tested on: uORF-bearing 5'UTR firefly reporters in HEK293T cells; experiment: uORF reinitiation / leaky scanning firefly reporters; details: for ff/rl, 46 leaky reporter / ff/rl, 46 reporter / ff/rl, normal reporter: single replicates, not normalized to DMSO
# Source text: (M) The reference and uORF-bearing reporters were transfected to HEK293T cells together with RL, which served to normalize translation efficiency. The reporter activities are represented as firefly vs RL; n ≥3 independent biological replicates, error bars represent SEM. *P < 0.05, **P < 0.01, Student t test. (N) Firefly Reporters (J) were transfected to HEK293T cells together with normalizing RL. […] Results are represented as firefly vs. RL normalized to DMSO in each biological replicate; n = 4, error bars represent SEM. *P < 0.05, **P < 0.01, Student t test.
# In the first and second, we inserted an out-of-frame uAUG 46 or 95 nucleotides before the main ORF, respectively, followed by a downstream stop codon generating an uORF of 10 amino acids. In these constructs, the translation from the main ORF could be either by reinitiation or leaky scanning. In the third construct, this out of frame uAUG lacks a stop codon, causing initiation from the main ORF to exclusively occur via leaky scanning (Fig. 4L). These reporters were transfected into HEK293T cells together with RL luciferase reporter for normalizing transfection efficiency. […] We next examined these reporters in the presence of 1Ais.
# eIF1A-RPS10 interaction = target: T1, eIF1A-RPS10 interaction (Homo sapiens, UniProt P46783+P47813); experiment: Split-Renilla luciferase eIF1A-RPS10 interaction screen, dose-response; format: biochemical
# T1 construct: made in house; host or cells: E. coli BL21 (PRSFduet); unpurified lysate supernatant
# How it was run: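 Reconstituted Renilla luciferase activity reports eIF1A-RPS10 binding; loss indicates disruption by compound. Recombinant fusions (eIF1A C-terminus to N-RL; RPS10-ΔN-Renilla) expressed in E. coli BL21, used as sonicated supernatants in Tris/KCl/EDTA buffer, with unfused split-RL halves as controls.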
# eIF1A without NTT = target: T2, eIF1A without NTT (Homo sapiens, UniProt P47813); experiment: Fluorescence binding assay with NTT-truncated eIF1A; details: for fluorescence ratio, eIF1A Δ NTT: background-corrected, relative to DMSO or lowest 1Ai concentration, replicate columns
# T2 construct: His-bdSUMO (cleaved yes); made in house; host or cells: E. coli (BL-21)
# eIF1A without CTT = target: T3, eIF1A without CTT (Homo sapiens, UniProt P47813); format: binding; details: for fluorescence ratio, eIF1A Δ CTT: background-corrected, relative to DMSO or lowest 1Ai concentration, replicate columns
# T3 construct: His-bdSUMO (cleaved yes); made in house; host or cells: E. coli (BL-21)
# [2] = tested on: regulatory CUG of SARS-CoV-2 ORF7a 5'UTR in HEK293T cells; format: cell-based; details: for average (inverted): normalized to DMSO = 1.000, mean of 3 reps; for CUG/AUG ratio (Renilla/firefly): overnight; for FF CTG signal, mean of duplicates / FF vs Rluc / FF vs Rluc, inverted / Rluc ATG signal, mean of duplicates / normalized to DMSO: reps 1-3; for normalized to DMSO: DMSO = 1
# [3] = summary table, read-out: IC50 concentration (µM), IC50 screen
# T1 sequence (P47813 whole entry, one chain of several): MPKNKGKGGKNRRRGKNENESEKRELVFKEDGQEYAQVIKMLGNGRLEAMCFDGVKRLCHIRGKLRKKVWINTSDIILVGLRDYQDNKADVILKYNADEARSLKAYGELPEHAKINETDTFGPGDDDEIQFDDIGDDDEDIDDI
# T2 sequence (P47813 31-144 limits assumed): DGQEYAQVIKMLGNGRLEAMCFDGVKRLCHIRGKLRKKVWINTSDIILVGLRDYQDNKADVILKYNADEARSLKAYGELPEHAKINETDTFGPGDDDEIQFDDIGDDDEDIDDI
# T3 sequence (P47813 1-114 limits assumed): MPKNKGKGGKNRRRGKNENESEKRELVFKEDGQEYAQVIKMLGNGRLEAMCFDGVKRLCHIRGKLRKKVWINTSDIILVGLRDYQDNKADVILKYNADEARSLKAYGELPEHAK
structure (smiles),measurement,setting,value
O=C(COc1ccccc1[N+](=O)[O-])NCc1ccc(-c2ccc(Br)cc2)o1 [1Ai-4700],"GFP reporter ratio nsp1/gfp, avg",NSP1,0.4331
same,"GFP reporter ratio nsp1/gfp, rep 1",NSP1,0.4284
same,"GFP reporter ratio nsp1/gfp, rep 2",NSP1,0.4378
same,"gfp signal, mean of duplicate wells",NSP1,2716 and 2411 and 2645
same,"nsp1 signal, mean of duplicate wells",NSP1,1163.5 and 1055.5 and 1429.5
same,ratio (nsp1/gfp),NSP1,0.428 and 0.438 and 0.540
same,effect on uORF / leaky scanning reporters,"[1]; 20uM (1Ai-5175 at 5uM), overnight",inhibit the short-distance reinitiation
same,"normalized to DMSO, 46 leaky, average","[1]; 46 leaky reporter, average of biological repeats",0.994
same,"normalized to DMSO, 46 leaky, biological repeats","[1]; 46 leaky reporter, biological repeats 1-4",0.989 and 1.082 and 1.159 and 0.746
same,"normalized to DMSO, 46 leaky","[1]; 46 leaky reporter, single replicates 1-8 (two dates)",0.973 and 1.005 and 1.055 and 1.109 and 1.618 and 0.700 and 0.255 and 1.237
same,"normalized to DMSO, -46, average","[1]; -46 reporter, average of biological repeats",0.679
same,"normalized to DMSO, -46, biological repeats","[1]; -46 reporter, biological repeats 1-4",0.691 and 0.744 and 0.743 and 0.536
same,"normalized to DMSO, -46","[1]; -46 reporter, single replicates 1-8 (two dates)",0.671 and 0.712 and 0.669 and 0.819 and 1.007 and 0.479 and 0.251 and 0.821
same,"ff/rl, 46 leaky reporter",[1]; experiment 12.3.24,3.84E-02 and 3.96E-02 and 4.16E-02 and 4.37E-02
same,"ff/rl, 46 reporter",[1]; experiment 12.3.24,1.06E-01 (2×) and 1.12E-01 and 1.29E-01
same,"ff/rl, normal reporter",[1]; experiment 12.3.24,2.90E-01 and 2.11E-01 and 2.89E-01 and 2.67E-01
same,"ff/rl, 46 leaky reporter",[1]; experiment 13.03.24,1.47E-02 and 6.33E-03 and 2.31E-03 and 1.12E-02
same,"ff/rl, 46 reporter",[1]; experiment 13.03.24,2.46E-02 and 1.17E-02 and 6.14E-03 and 2.01E-02
same,"ff/rl, normal reporter",[1]; experiment 13.03.24,3.97E-02 and 5.12E-02 and 7.78E-02 and 1.08E-01
same,"reporter activity norm to DMSO, minus46","[1]; minus46 reporter, 95nt from uORF to main ORF experiment, Figure 4N source data, replicate experiments, DMSO = 1",0.3368 and 0.3707
same,"reporter activity norm to DMSO, minus 95","[1]; minus 95 (nt) reporter, 95nt from uORF to main ORF experiment, Figure 4N source data, replicate experiments, DMSO = 1",1.361 and 1.106
same,"reporter activity norm to DMSO, ref","[1]; ref reporter, 95nt from uORF to main ORF experiment, Figure 4N source data, replicate experiments, DMSO = 1",0.8256 and 0.6094
same,"normalized to DMSO, refference, average","[1]; refference reporter, average of biological repeats",0.908
same,"normalized to DMSO, refference","[1]; refference reporter, single replicates 1-8 (two dates)",1.031 and 0.751 and 1.028 and 0.950 and 0.503 and 0.648 and 0.985 and 1.371
same,"normalized to DMSO, single replicates","[1]; reporter 46, experiment 12.3.24",6.71E-01 and 7.12E-01 and 6.69E-01 and 8.19E-01
same,"normalize to DMSO, average","[1]; reporter 46, experiment 12.3.24, DMSO = 1",0.7177
same,"normalized to DMSO, single replicates","[1]; reporter 46, experiment 13.3.24",1.01E+00 and 4.79E-01 and 2.51E-01 and 8.21E-01
same,"normalize to DMSO, average","[1]; reporter 46, experiment 13.3.24, DMSO = 1",0.6395
same,"normalize to DMSO, average","[1]; reporter 46 leaky, experiment 12.3.24, DMSO = 1",1.036
same,"normalized to DMSO, single replicates","[1]; reporter 46 leaky, experiment 13.3.24",1.62E+00 and 7.00E-01 and 2.55E-01 and 1.24E+00
same,"normalize to DMSO, average","[1]; reporter 46 leaky, experiment 13.3.24, DMSO = 1",0.9525
same,"normalized to DMSO, single replicates","[1]; reporter normal (refference), experiment 12.3.24",1.03E+00 (2×) and 7.51E-01 and 9.50E-01
same,"normalized to DMSO, single replicates","[1]; reporter normal (refference), experiment 13.3.24",5.03E-01 and 6.48E-01 and 9.85E-01 and 1.37E+00
same,"normalize to DMSO, average","[1]; reporter refference, experiment 12.3.24, DMSO = 1",0.9399
same,"normalize to DMSO, average","[1]; reporter refference, experiment 13.3.24, DMSO = 1",0.8765
same,inhibitory effect with extended (long) reinitiation distance,[1]; uORF to main ORF distance extended by 49 nt,lost
same,IC50,eIF1A-RPS10 interaction; [3],11 µM
same,binding to NTT-truncated eIF1A,eIF1A without NTT,significantly decreased
same,"fluorescence ratio, eIF1A Δ NTT",eIF1A without NTT; 1Ai conc. 0.25 uM,0.8472 and 0.7714
same,"fluorescence ratio, eIF1A Δ NTT",eIF1A without NTT; 1Ai conc. 0.5 uM,0.8794 and 0.8467
same,"fluorescence ratio, eIF1A Δ NTT",eIF1A without NTT; 1Ai conc. 1 uM,0.866 and 0.8543
same,"fluorescence ratio, eIF1A Δ NTT",eIF1A without NTT; 1Ai conc. 2 uM,0.8713 and 0.8518
same,"fluorescence ratio, eIF1A Δ NTT",eIF1A without NTT; 1Ai conc. 4 uM,0.8204 and 0.8417
same,"fluorescence ratio, eIF1A Δ NTT",eIF1A without NTT; 1Ai conc. 8 uM,2.437 and 0.8015
same,"fluorescence ratio, eIF1A Δ NTT",eIF1A without NTT; 1Ai conc. 16 uM,0.7775 and 0.7663
same,"fluorescence ratio, eIF1A Δ NTT",eIF1A without NTT; 1Ai conc. 32 uM,0.7078 and 0.6935
same,"fluorescence ratio, eIF1A Δ NTT",eIF1A without NTT; 1Ai conc. 64 uM,0.6729 and 0.5628
same,"fluorescence ratio, eIF1A Δ NTT",eIF1A without NTT; 1Ai conc. 256 uM,0.6059 and 0.6683
same,IC50,"eIF1A without NTT; eIF1A Δ NTT, from the titration data, read-out: IC50 (eIF1A Δ NTT titration block)",30.2 µM
same,IC50,"eIF1A without NTT; summary table, fluorescence binding assay, read-out: IC50 concentration (µM), NTT truncation",45.7 µM
same,"fluorescence ratio, eIF1A Δ CTT",eIF1A without CTT; 1Ai conc. 0.25 uM,1.002 and 1.029
same,"fluorescence ratio, eIF1A Δ CTT",eIF1A without CTT; 1Ai conc. 0.5 uM,0.8837 and 0.9156
same,"fluorescence ratio, eIF1A Δ CTT",eIF1A without CTT; 1Ai conc. 1 uM,0.8554 and 0.8332
same,"fluorescence ratio, eIF1A Δ CTT",eIF1A without CTT; 1Ai conc. 2 uM,0.9021 and 0.8902
same,"fluorescence ratio, eIF1A Δ CTT",eIF1A without CTT; 1Ai conc. 4 uM,0.8119 and 0.7934
same,"fluorescence ratio, eIF1A Δ CTT",eIF1A without CTT; 1Ai conc. 8 uM,0.6359 and 0.584
same,"fluorescence ratio, eIF1A Δ CTT",eIF1A without CTT; 1Ai conc. 16 uM,0.7372 and 0.671
same,"fluorescence ratio, eIF1A Δ CTT",eIF1A without CTT; 1Ai conc. 32 uM,0.5663 and 0.5472
same,"fluorescence ratio, eIF1A Δ CTT",eIF1A without CTT; 1Ai conc. 64 uM,0.381 and 0.3897
same,"fluorescence ratio, eIF1A Δ CTT",eIF1A without CTT; 1Ai conc. 256 uM,0.2785 and 0.26
same,IC50,"eIF1A without CTT; eIF1A Δ CTT, from the titration data, read-out: IC50 (eIF1A Δ CTT titration block)",30.2 µM
same,IC50,"eIF1A without CTT; summary table, fluorescence binding assay, read-out: IC50 concentration (µM), CTT truncation",30.2 µM
O=c1cc(CN2CCOCC2)occ1OCCCCCSc1ccnc2cc(C(F)(F)F)ccc12 [1Ai-5730],"GFP reporter ratio nsp1/gfp, avg",NSP1,0.5107
same,"GFP reporter ratio nsp1/gfp, rep 1",NSP1,0.524
same,"gfp signal, mean of duplicate wells",NSP1,1636.5
same,"nsp1 signal, mean of duplicate wells",NSP1,857.5
same,ratio (nsp1/gfp),NSP1,0.524
same,IC50,"eIF1A-RPS10 interaction; Appendix Table S1, read-out: IC50 from the split RL screen",30 µM
same,IC50,eIF1A-RPS10 interaction; [3],24 µM
same,average (inverted),[2],0.744
same,CUG/AUG ratio (Renilla/firefly),[2],decreased the CUG/AUG ratio to variable degrees
same,"FF CTG signal, mean of duplicates",[2],5472.4 and 6803.94 and 6446.76
same,FF vs Rluc,[2],54.969 and 55.654 and 55.147
same,"FF vs Rluc, inverted",[2],0.018
same,"Rluc ATG signal, mean of duplicates",[2],2604320 and 3030300 and 3158315
same,normalized to DMSO,[2],0.748 and 0.739 and 0.745
Cc1ccc(C)n1-c1cc([N+](=O)[O-])ccc1N1CCN(C(=O)c2ccccc2)CC1 [1Ai-9008],"GFP reporter ratio nsp1/gfp, avg",NSP1,0.4707
same,"GFP reporter ratio nsp1/gfp, rep 1",NSP1,0.4454
same,"GFP reporter ratio nsp1/gfp, rep 2",NSP1,0.4961
same,"gfp signal, mean of duplicate wells",NSP1,2743.5 and 4942
same,"nsp1 signal, mean of duplicate wells",NSP1,1361 and 2201
same,ratio (nsp1/gfp),NSP1,0.496 and 0.445
same,IC50,eIF1A-RPS10 interaction; [3],27 µM
same,average (inverted),[2],0.875
same,CUG/AUG ratio (Renilla/firefly),[2],decreased the CUG/AUG ratio to variable degrees
same,"FF CTG signal, mean of duplicates",[2],19795.8 and 14760.8 and 12081.3
same,FF vs Rluc,[2],47.590 and 44.537 and 48.991
same,"FF vs Rluc, inverted",[2],0.021 and 0.022 and 0.020
same,"Rluc ATG signal, mean of duplicates",[2],10881500 and 8214985 and 6662440
same,normalized to DMSO,[2],0.864 and 0.923 and 0.839
